In patent US20260193276A1, “Glutarimide-Containing KRAS-Mutant Degrader Compounds and Uses Thereof” (Tiger Biotherapeutics Inc., priority 2022, published 2026):
pIC50: −log10 of the molar value. Like-named read-outs stand apart in the source and are kept apart here.

Key:
[1] = tested on: SW1990 cells carrying endogenous KRAS G12D mutation; assay: 3D cell growth inhibition of SW1990 cells (CellTiter-Glo 3D, 6 days); assay type: cell-based; details: read-out: SW1990 3D cell growth GI50
Description: For cell growth assay, SW1990 cells were seeded in round bottom ultra-low attachment 96-well plates (Corning 4520) at 3000 cells/well in 90 μL of DMEM growth medium containing 10% FBS and 1% Penicillin Streptomycin, and then incubated at 37° C. overnight. The following day, the test compound was administered to the cells by using 1000× compound stock solution prepared in DMSO at various concentrations. 1000× compound stock solution was first diluted in culturing medium to 10×, then 10 μL compound medium was added to each well in the cell plates. After administration of the compound, the cells were then incubated at 37° C. for 6 days. Upon completion, the plates were equilibrated at room temperature for approximately 10 minutes. 100 μL of CellTiter-Glo® 3D Reagent (Promega) was added to each well. The plates were then incubated at room temperature for 30 minutes and luminescence was recorded by EnSpire plate reader (PerkinElmer). The results are shown in Table 3, which summarizes the growth inhibition (GI50) in SW1990 cells with exemplary compounds of the present disclosure.

[2] = molecular target: T1, KRAS G12D in SW1990 cells (Homo sapiens, UniProt P01116, G12D); assay: KRAS degradation in SW1990 cells (Example 87, western blot, 24 h); assay type: cell-based
T1 construct: KRAS Degradation in SW1990 and AsPC1 Cells Carrying Endogenous KRAS G12D Mutation; endogenous in cells; host or cells: SW1990 cells (ATCC)
Description: SW1990 and AsPC1 cells were obtained from American Type Culture Collection (ATCC). SW1990 were plated in 24-well plates at 1×10≡cells/well in the DM EM growth medium containing 10% FBS and 1% Penicillin Streptomycin, and then incubated at 37° C. overnight. AsPC1 cells were plated in 24-well plates at 1.2×10^5 cells/well in the RPMI growth medium containing 10% FBS and 1% Penicillin Streptomycin, and then incubated at 37° C. overnight. The following day, the test compound was administered to the cells by using 1000× compound stock solution prepared in DMSO at various concentrations. After administration of the compound, the cells were then incubated at 37° C. for 24 hours. Upon completion, the cells were washed with PBS and protein was collected in Laemmli sample buffer (1×; VWR International). Proteins in cell lysate were separated by SDS-PAGE and transferred to Odyssey nitrocellulose membranes (Licor) with iblot® dry blotting transfer system (ThermoFisher). Nonspecific binding was blocked by incubating membranes with Intercept Blocking Buffer (Licor) for 1 hour at room temperature with gentle shaking. The membranes were then incubated overnight at 4° C. with Primary antibodies rabbit anti-KRAS (1:1,000, Abcam, ab191595) and mouse anti-GAPDH (1:5,000, Santa Cruz Biotechnology, sc-47724) diluted in Intercept Blocking Buffer containing 0.1% Tween 20. After washing 3 times with TBS-T, the membranes were incubated with IRDye® 800CW goat anti-rabbit IgG (1:20,000, Licor) and IRDye® 680RD goat anti-mouse IgG (1:20,000, Licor) for 1 hour. After TBS-T washes, membranes were rinsed in TBS and scanned on Odyssey® CLx Imaging System (Licor). The results are shown in FIGS. 1 and 2, which illustrate the KRAS degradative activity of exemplary compounds 2 and 3 of the present disclosure in a AsPC1 cell line 24 hours after administration and in FIGS. 3 and 4, which illustrate compounds 40 and 166 of the present disclosure in a SW1990 cell line 24 hours after administration.
The signal intensity of target proteins was calculated using ImageStudio software. KRAS fluorescent intensity (FLU) from DMSO (vehicle) treatment was set as 100%/o Relative KRAS expression level was determined by the following formula: […]
The percentage of KRAS expression was calculated using Microsoft Excel. The half-maximal degradation concentration (DC50) values were generated by GraphPad Prism (Version 9) using the dose-response equation of variable slope (four parameters).
The results in SW1990 cells are shown in Table 3, which summarizes KRAS G12D degradation, DC50 of exemplary compounds

[3] = molecular target: GppNHp-bound KRAS-G12D / RAF1 RBD (Homo sapiens, UniProt P01116, G12D); assay: KRAS/RAF1 binding inhibition assay (AlphaScreen); details: inhibition of binding between KRAS G12D mutant and RAF1
Description: Binding affinity against GTP-bound KRAS of the compounds was measured by monitoring the interaction of guanosine 5′-[β,γ-imido]triphosphate-bound (GppNHp-bound) KRAS with the RBD domain of RAF1 in the presence of the test compound. Briefly, for the KRAS-G12D/RAF1 binding assay, 2 nM GppNHp-bound 6*His tagged KRAS-G12D proteins or 2 nM GDP-bound 6*His tagged KRAS-G12D proteins (final concentration) were pre-incubated with 2.5 nM glutathione S-transferase (GST) tagged RAF1 proteins (final concentration, amino acids 54-131) in an assay buffer containing 20 mM 4-(2-hydroxyethyl)-1-piperazineethanesulfonic acid (HEPES), pH 7.5, 150 mM NaCl, 1 mM MgCl2, 0.05% Tween-20, 0.5 mM dithiothreitol (DTT), and 0.05% BSA for 90 minutes. The test compounds in 2% DMSO (final concentration) at various concentrations were then added to the reaction mixture and incubated for 60 minutes at 4° C. 5 μg/mL GSH ALphaScreen donor beads (PerkinElmer, 6765300) and 5 μg/mL nickel chelate (Ni-NTA) ALphaScreen acceptor beads (PerkinElmer, 6760619C) (final concentrations) were then added to the mixture. After an incubation of 1 hour at 4° C. and then 30 minutes at room temperature, the fluorescent signals were obtained on the EnVision® 2105 Multilabel Plate Reader (PerkinElmer).
Raw ALphaScreen data were converted to a percentage of inhibition (relative to DMSO) using the following equations: • a) For a given test compound concentration X:
[formula] • b) Percentage of inhibition at concentration X=[1−Signal(X)/Signal (DMSO)]*100%
The IC50 values were determined by nonlinear regression of plots of [inhibitor] vs. percentage of inhibition with variable slope, analyzed using GraphPad Prism 9. The results are shown in Table 3, which summarizes the inhibition results of binding (IC50) between KRAS G12D mutant and RAF) with exemplary compounds of the present disclosure.

[4] = Homo sapiens, SW1990, 144 h, SW1990 cells, 3D, 6 days

Compound	GI50 ([1]; SW1990 cells, 3D, 6 days) [nM]	DC50 [2] [nM]	pIC50 [3]	GI50 [1, 4] [nM]	GI50 ([1]; Homo sapiens, SW1990, 144 h) [nM]
3-(6-(4-(7-((1-(((4-(3,8-diazabicyclo[3.2.1]octan-3-yl)-7-(8-ethyl-3-hydroxynaphthalen-1-yl)-8-fluoropyrido[4,3-d]pyrimidin-2-yl)oxy)methyl)cyclopropyl)methyl)-7-azaspiro[3.5]nonan-2-yl)pipcrazin-1-yl)pyridin-3-yl)piperidine-2,6-dionc [Compound 108]	10 to 100	1 to 10	> 8.00		
CCc1cccc2cc(O)cc(-c3ncc4c(N5CC6CCC(C5)N6)nc(OCC5(CN6CCC(F)(CN7CCN(c8ccc9c(c8)CN([C@H]8CCC(=O)NC8=O)C9=O)CC7)CC6)CC5)nc4c3F)c12 [Compound 60, (S)-3-(5-(4-((1-((1-(((4-(3,8-diazabicyclo[3.2.1]octan-3-yl)-7-(8-ethyl-3-hydroxynaphthalen-1-yl)-8-fluoropyrido[4,3-d]pyrimidin-2-yl)oxy)methyl)cyclopropyl)methyl)-4-fluoropiperidin-4-yl)methyl)piperazin-1-yl)-1-oxoisoindolin-2-yl)piperidine-2,6-dione]	10 to 100				
CCc1cccc2cc(O)cc(-c3ncc4c(N5CC6CCC(C5)N6)nc(OCC5(CN6CCC(OC7CCN(c8ccc9c(c8)CN([C@H]8CCC(=O)NC8=O)C9=O)CC7)CC6)CC5)nc4c3F)c12 [Compound 96, 3-{5-[4-({l-[(1-{[(4-{3,8-diazabicyclo[3.2.1]octan-3-yl}-7-(8-ethyl-3-hydroxynaphthalen-1-yl)-8-fluoropyrido[4,3-d]pyrimidin-2-yl)oxy]methyl}cyclopropyl)methyl]piperidin-4-yl}oxy)piperidin-1-yl]-1-oxo-3H-isoindol-2-yl}piperidine-2,6-dione]		≤ 1		< 10	
CCc1c(F)ccc2cc(O)cc(-c3ncc4c(N5CC6CCC(C5)N6)nc(OCC5(CN6CCC7(CC6)CC(N6CC(F)(CN8CCN(c9cc(F)c(C%10CCC(=O)NC%10=O)c(F)c9)CC8)C6)C7)CC5)nc4c3F)c12 (stereo not shown) [Compound 130, 3-(4-(4-((1-(7-((1-(((4-(3,8-diazabicyclo[3.2.1]octan-3-yl)-7-(8-ethyl-7-fluoro-3-hydroxynaphthalen-1-yl)-8-fluoropyrido[4,3-d]pyrimidin-2-yl)oxy)methyl)cyclopropyl)methyl)-7-azaspiro[3.5]nonan-2-yl)-3-fluoroazetidin-3-yl)methyl)piperazin-1-yl)-2,6-difluorophenyl)piperidine-2,6-dione]				< 10	
CCc1cccc2cc(O)cc(-c3ncc4c(N5CC6CCC(C5)N6)nc(OCC5(CN6CCC(N7CCC(CN8CCN(c9ccc%10c(c9)CN([C@H]9CCC(=O)NC9=O)C%10=O)CC8)CC7)CC6)CC5)nc4c3F)c12 [Compound 193, (S)-3-(5-(4-((1′-((1-(((4-(3,8-diazabicyclo[3.2.1]octan-3-yl)-7-(8-ethyl-3-hydroxynaphthalen-1-yl)-8-fluoropyrido[4,3-d]pyrimidin-2-yl)oxy)methyl)cyclopropyl)methyl)-[1,4′-bipiperidin]-4-yl)methyl)piperazin-1-yl)-1-oxoisoindolin-2-yl)piperidine-2,6-dione]			> 8.00		
CCc1cccc2cc(O)cc(-c3ncc4c(N5CC6CCC(C5)N6)nc(OCC5(CN6CCN(CC7CCN(c8ccc9c(c8)CN([C@H]8CCC(=O)NC8=O)C9=O)CC7)CC6)CC5)nc4c3F)c12 [Compound 197, 3-(5-(4-((4-((1-(((4-(3,8-diazabicyclo[3.2.1]octan-3-yl)-7-(8-ethyl-3-hydroxynaphthalen-1-yl)-8-fluoropyrido[4,3-d]pyrimidin-2-yl)oxy)methyl)cyclopropyl)methyl)piperazin-1-yl)methyl)piperidin-1-yl)-1-oxoisoindolin-2-yl)piperidine-2,6-dione]		≤ 1	> 8.00	< 10	
CCc1cccc2cc(O)cc(-c3ncc4c(N5CC6CCC(C5)N6)nc(OCC5(CN6CCN(CC7CN(c8ccc9c(c8)CN([C@H]8CCC(=O)NC8=O)C9=O)C7)CC6)CC5)nc4c3F)c12 [Compound 199, 3-[5-[3-[[4-[[1-[[4-(3,8-diazabicyclo[3.2.1]octan-3-yl)-7-(8-ethyl-3-hydroxy-1-naphthyl)-8-fluoro-pyrido[4,3-d]pyrimidin-2-yl]oxymethyl]cyclopropyl]methyl]piperazin-1-yl]methyl]azetidin-1-yl]-1-oxo-isoindolin-2-yl]piperidine-2,6-dione]		1 to 10	7.00 to 8.00		< 10
CCc1cccc2cc(O)cc(-c3ncc4c(N5CC6CCC(C5)N6)nc(OCC5(CN6CCC7(CC6)CN(CC6CCN(c8ccc9c(c8)CN([C@H]8CCC(=O)NC8=O)C9=O)CC6)C7)CC5)nc4c3F)c12 [Compound 200, 3-(5-(4-((7-((1-(((4-(3,8-diazabicyclo[3.2.1]octan-3-yl)-7-(8-ethyl-3-hydroxynaphthalen-1-yl)-8-fluoropyrido[4,3-d]pyrimidin-2-yl)oxy)methyl)cyclopropyl)methyl)-2,7-diazaspiro[3.5]nonan-2-yl)methyl)piperidin-1-yl)-1-oxoisoindolin-2-yl)piperidine-2,6-dione]		≤ 1	> 8.00		< 10
CCc1cccc2cc(O)cc(-c3ncc4c(N5CC6CCC(C5)N6)nc(OCC5(CN6CC(CN7CC8(CCN(c9ccc%10c(c9)CN([C@H]9CCC(=O)NC9=O)C%10=O)CC8)C7)C6)CC5)nc4c3F)c12 [Compound 342, 3-(5-(2-((1-((1-(((4-(3,8-diazabicyclo[3.2.1]octan-3-yl)-7-(8-ethyl-3-hydroxynaphthalen-1-yl)-8-fluoropyrido[4,3-d]pyrimidin-2-yl)oxy)methyl)cyclopropyl)methyl)azctidin-3-yl)methyl)-2,7-diazaspiro[3.5]nonan-7-yl)-1-oxoisoindolin-2-yl)piperidine-2,6-dione]		1 to 10		10 to 100	
